# Where two headings read alike, the source gives them in different places.
# Tests used:
# [1] = tested on: mouse leukemia P388 cells; experiment: In vivo antitumor effects against mouse leukemia P388 cells in BDF1 mice; settings: P388, ip, abdominal cavity
# Protocol: In vivo antitumor effects against mouse leukemia P388 cells.
# 1) Leukemia P388 cells being transfer-cultured successively in DBA/2 mouse, were grafted into each mouse of a group comprising 8 mice of 6 week old BDF1 mouse with the dose of 1×10^6 cells/0.1 ml. […]
# 3) With observation everyday, survival times of tested mice were measured. Antitumor activities was determined in such a manner that the increasing ratio(T/C%) of average survival days of drug-treated groups compared with the control group was calculated using the mean survival times of each tested groups.
# [2] = Acute toxicity test (LD50), Litchfield-Wilcoxon method; settings: mouse, in vivo, ip, male ICR mice, 14 days
# Protocol: Acute toxicity test (LD50): Litchfield-Wilcoxon method.
# 6 weeks old ICR mice(male 30±2.0 g) were fed freely with solid feed and water at room temperature, 23±1° C. and at humidity 60±5%. Sample drugs were injected into the abdominal cavities of mice, while each group comprises 6 mice. Observed during 14 days, external appearances and life or dead were recorded, and then, visible pathogenies were observed from dead animals by dissection. LD50 value was calculated by Litchfiled-wilcoxon method.
# [3] = tested on: A549 (human non-small lung cell); experiment: SRB assay, in vitro antitumor effect against A549; assay type: cell-based; settings: Homo sapiens; A549, 48 hours; read-out: ED50 (the source's name)
# Protocol: (§1) In vitro antitumor effect against human tumor cell lines.
# (§2) b. 5×10^3 ~2×10^4 cells were added into each well of 96-well plate and cultured in 5% CO2 incubator, at 37° C., for 24 hours.
# (§3) c. Each sample drug was dissolved in a little DMSO and diluted with the used medium to a prescribed concentration for experiments, wherein the final concentration of DMSO was controlled below 0.5%.
# (§4) d. Medium of each well cultured for 24 hours as above b. was removed by aspiration. Each 200 μl of drug samples prepared in c. was added into each well and the wells were cultured for 48 hours. Tz(time zero) plates were collected at the point of time drugs were added.
# (§5) e. According to the SRB assay method, cell fixing with TCA, staining with 0.4% SRB solution, washing with 1% acetic acid and elution of dye with 10 mM Tris solution were carried out on Tz plates and culture-ended plates, and then, OD values were measured at 520 nm.
# (§6) a. Time zero(Tz) value was determined with measuring the SRB protein value at the point of time drugs were added.
# (§7) b. Control value(C) was determined with the OD value of an well untreated with drug.
# (§8) c. Drug-treated test value(T) was determined with the OD value of drug-treated well.
# (§9) d. Effects of drugs were estimated with growth stimulation, net growth inhibition, net killing etc. calculated from Tz, C and T.
# (§10) e. If T≥Tz, cellular response function was calculated by 100×(T-Tz)/(C-Tz), and if T<Tz, by 100×(T-Tz)/Tz.
# SKOV-3 (human ovarian) = experiment: SRB assay, in vitro antitumor effect against SKOV-3; assay type: cell-based; settings: Homo sapiens; SK-OV-3, 48 hours; read-out: ED50 (the source's name)
# Protocol: as §1, §2, §3, §4, §5, §6, §7, §8, §9, §10
# SKMEL-2 (human melanoma) = experiment: SRB assay, in vitro antitumor effect against SKMEL-2; assay type: cell-based; settings: Homo sapiens; SK-MEL-2, 48 hours; read-out: ED50 (the source's name)
# Protocol: as §1, §2, §3, §4, §5, §6, §7, §8, §9, §10
# XF 498 (human CNS) = experiment: SRB assay, in vitro antitumor effect against XF 498; assay type: cell-based; settings: Homo sapiens, XF498; XF-498, 48 hours; read-out: ED50 (the source's name)
# Protocol: as §1, §2, §3, §4, §5, §6, §7, §8, §9, §10
# HCT-15 (human colon) = experiment: SRB assay, in vitro antitumor effect against HCT-15; assay type: cell-based; settings: Homo sapiens
# Protocol: as §1, §2, §3, §4, §5, §6, §7, §8, §9, §10
# [4] = on days 1, 5, 9, read-out: T/C(%)
# [5] = HCT 15, 48 hours, read-out: ED50 (the source's name)
# [6] = nine everyday, read-out: T/C(%)
# [7] = on days 1, 4, 8, read-out: T/C(%)
IC50 (HCT-15 (human colon); [5]) [µg/mL],SMILES,LD50 at 336 h [2] [mg/kg],IC50 [3] [µg/mL],IC50 (SKOV-3 (human ovarian)) [µg/mL],IC50 (SKMEL-2 (human melanoma)) [µg/mL],IC50 (XF 498 (human CNS)) [µg/mL],further results
–,"CCCc1cc(NC(=O)N2CCN(c3cc(OC)cc(OC)c3)CC2)c(OC)nc1C [Example 8, 1-[(2-Methoxy-6-methyl-5-propylpyridin-3-yl)aminocarbonyl]-4-(3,5-dimethoxyphenyl)piperazine]",707,–,–,–,–,"response vs control in vivo at 100 mg/kg [1, 4]: 104%; response vs control in vivo at 200 mg/kg [1, 4]: 141%"
–,"CCc1nc(OC)c(NC(=O)N2CCN(c3cc(OC)cc(OC)c3)CC2)cc1C [Example 12, 1-[(6-Ethyl-2-methoxy-5-methylpyridin-3-yl)aminocarbonyl]-4-(3,5-dimethoxyphenyl)piperazine]",165,–,–,–,–,–
–,"CCc1nc(OC)c(NC(=O)N2CCN(c3cc(C)cc(C)c3)CC2)cc1C [Example 13, 1-[(6-Ethyl-2-methoxy-5-methylpyridin-3-yl)aminocarbonyl]-4-(3,5-dimethylphenyl)piperazine]",285,–,–,–,–,–
–,"COc1cc(OC)cc(N2CCN(C(=O)N(C)c3cc4ccccc4nc3OC)CC2)c1 [Example 98, 1-[N-(2-Methoxyquinolin-3-yl)-N-methylaminocarbonyl]-4-(3,5-dimethoxyphenyl)piperazine]",–,–,–,–,–,"response vs control in vivo at 25 mg/kg [1, 6]: 110%; response vs control in vivo at 50 mg/kg [1, 6]: 110%; response vs control in vivo at 100 mg/kg [1, 6]: 150%"
0.066,"COc1nc(C)c(C)cc1N(C)C(=O)N1CCN(c2cc(C)cc(C)c2)CC1 [Example 135, 1-[N-(5,6-Dimethyl-2-methoxypyridin-3-yl)-N-methylaminocarbonyl]-4-(3,5-dimethylphenyl)piperazine]",–,0.056,0.092,0.102,0.06,"response vs control in vivo at 25 mg/kg [1, 6]: 100%; response vs control in vivo at 50 mg/kg [1, 6]: 110%; response vs control in vivo at 100 mg/kg [1, 6]: 150%"
–,"CCc1cc(N(C)C(=O)N2CCN(c3cc(C)cc(C)c3)CC2)c(OC)nc1C [Example 144, 1-[N-(5-Ethyl-2-methoxy-6-methylpyridin-3-yl)-N-methylaminocarbonyl]-4-(3,5-dimethylphenyl)piperazine]",–,–,–,–,–,"response vs control in vivo at 50 mg/kg [1, 6]: 110%; response vs control in vivo at 100 mg/kg [1, 6]: 110%; response vs control in vivo at 200 mg/kg [1, 6]: 125%"
–,"COc1cc(C)c(C)cc1NC(=O)N1CCN(c2ccccc2)CC1 [Example 170, 1-[(4,5-Dimethyl-2-methoxyphenyl)aminocarbonyl]-4-phenylpiperzine]",573,–,–,–,–,–
0.00181,"COc1cc(OC)cc(N2CCN(C(=O)Nc3cc(C)c(C)cc3OC)CC2)c1 [Example 171, 1-[(4,5-Dimethyl-2-methoxyphenyl)aminocarbonyl]-4-(3,5-dimethoxyphenyl)piperazine]",–,0.000645,0.00372,0.00323,0.000572,"response vs control in vivo at 25 mg/kg [1, 7]: 100%; response vs control in vivo at 50 mg/kg [1, 7]: 100%; response vs control in vivo at 100 mg/kg [1, 7]: 140%"
–,"COc1cc(C)c(C)cc1NC(=O)N1CCN(c2cccc(OC(C)=O)c2)CC1 [Example 182, 1-[(4,5-Dimethyl-2-methoxyphenyl)aminocarbonyl]-4-(3-acetoxyphenyl)piperazine]",348,–,–,–,–,–
–,"COc1cc(C)c(C)cc1NC(=O)N1CCN(c2cc(-c3ccccc3)ccc2OC)CC1 [Example 186, 1-[(4,5-Dimethyl-2-methoxyphenyl)aminocarbonyl]-4-(2-methoxy-5-phenylphenyl)piperazine]",> 2000,–,–,–,–,–
–,"C=C(C)c1ccccc1N1CCN(C(=O)Nc2cc(C)c(C)cc2OC)CC1 [Example 187, 1-[(4,5-Dimethyl-2-methoxyphenyl)aminocarbonyl]-4-(2-isopropenylphenyl)piperazine]",418,–,–,–,–,–
0.56,"COc1cc(C)c(C)cc1NC(=S)N1CCN(c2cc(C)cc(C)c2)CC1 [Example 198, 1-[(4,5-Dimethyl-2-methoxyphenyl)aminothiocarbonyl]-4-(3,5-dimethylphenyl)piperazine]",–,0.021,0.068,0.008,0.072,–
0.44,"COc1cc(C)c(C)cc1NC(=S)N1CCN(c2cc(F)cc(F)c2)CC1 [Example 200, 1-[(4,5-Dimethyl-2-methoxyphenyl)aminothiocarbonyl]-4-(3,5-difluorophenyl)piperazine]",–,0.5,0.53,0.26,1.01,–
–,"COc1cc(C)c(C)cc1NC(=S)N1CCN(c2cc(Cl)cc(Cl)c2)CC1 [Example 201, 1-[(4,5-Dimethyl-2-methoxyphenyl)aminothiocarbonyl]-4-(3,5-dichlorophenyl)piperazine]",–,0.014,0.053,0.049,0.026,"IC50 (HCT-15 (human colon); HCT-15, 48 h, read-out: ED50): 0.071 µg/mL"
0.64,"COc1cc(C)c(C)cc1NC(=S)N1CCN(c2ccccc2F)CC1 [Example 202, 1-[(4,5-Dimethyl-2-methoxyphenyl)amminothiocarbonyl]-4-(2-fluorophenyl)piperazine]",–,0.57,1.26,0.48,2.09,–
0.38,"COc1cc(C)c(C)cc1NC(=S)N1CCN(c2cccc(O)c2)CC1 [Example 206, 1-[(4,5-Dimethyl-2-methoxyphenyl)aminothiocarbonyl]-4-(3-hydroxyphenyl)piperazine]",–,0.47,0.54,0.52,0.7,–

SMILES,IC50 (HCT-15 (human colon); [5]) [µg/mL],LD50 at 336 h [2] [mg/kg],IC50 [3] [µg/mL],IC50 (SKOV-3 (human ovarian)) [µg/mL],IC50 (SKMEL-2 (human melanoma)) [µg/mL],IC50 (XF 498 (human CNS)) [µg/mL],further results
"CCCc1nc(OC)c(NC(=O)N2CCN(c3cc(OC)cc(OC)c3)CC2)cc1C [Example 15, 1-[(2-Methoxy-5-methyl-6-propylpyridin-3-yl)aminocarbonyl]-4-(3,5-dimethoxyphenyl)piperazine]",0.038,190,0.002,0.05,0.052,0.035,"response vs control in vivo at 10 mg/kg ([1]; 10 mg/kg, nine everyday, read-out: T/C(%)): 110%; response vs control in vivo at 25 mg/kg [1, 6]: 150%"
"CCCc1nc(OC)c(NC(=O)N2CCN(c3cc(C)cc(C)c3)CC2)cc1C [Example 16, 1-[(2-Methoxy-5-methyl-6-propylpyridin-3-yl)aminocarbonyl]-4-(3,5-dimethylphenyl)piperazine]",0.061,283,0.008,0.04,0.038,0.005,"response vs control in vivo at 25 mg/kg [1, 6]: 110%; response vs control in vivo at 50 mg/kg [1, 6]: 165%"
"CCCc1nc(OC)c(NC(=S)N2CCN(c3cccc(O)c3)CC2)cc1C [Example 28, 1-[(2-Methoxy-5-methyl-6-propylpyndin-3-yl)aminothiocarbonyl]-4-(3-hydroxyphenyl)piperazine]",0.05,> 2000,0.06,0.07,0.001,0.41,–
"COc1nc(C)c(C(C)O)cc1NC(=O)N1CCN(c2cc(C)cc(C)c2)CC1 (stereo not drawn) [Example 57, 1-{[5-(1-Hydroxyethyl)-2-methoxy-6-methylpyridin-3-yl]aminocarbonyl}-4-(3,5-dimethylphenyl)piperazine]",0.25,455,0.27,0.15,0.18,0.22,–
"COc1ccc(C)c(N2CCN(C(=O)Nc3cc(C)c(C)cc3OC)CC2)c1 [Example 184, 1-[(4,5-Dimethyl-2-methoxyphenyl)aminocarbonyl]-4-(5-methoxy-2-methylphenyl)piperazine]",0.2,309,0.28,0.34,0.17,0.12,–
